From US10787450B2 (BRISTOL-MYERS SQUIBB COMPANY, priority 2016, dated 2020) come the findings set out here.

Where a name gives a salt, the structure may show the parent alone.

In the experiment the target is ROCK2 (Homo sapiens (Human), UniProt O75116). As to the kind of experiment: ROCK2 kinase inhibition assay (FITC peptide substrate, LABCHIP 3000 Reader). The class given is biochemical. Particulars: 5 μM ATP, 1.5 μM peptide substrate. The method, boiled down: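 Reaction in 20 mM HEPES pH 7.5, 20 mM MgCl2, 0.015% Brij-35, 4 mM DTT with 5 μM ATP and 1.5 μM FITC-AHA-AKRRRLSSLRA-OH peptide, started with Rho kinase, DMSO <2%. EDTA-stopped; phospho and non-phospho peptide separated by mobility shift. IC50 from dose-response curve fit.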
ROCK2, sequence (O75116 whole entry, species assumed): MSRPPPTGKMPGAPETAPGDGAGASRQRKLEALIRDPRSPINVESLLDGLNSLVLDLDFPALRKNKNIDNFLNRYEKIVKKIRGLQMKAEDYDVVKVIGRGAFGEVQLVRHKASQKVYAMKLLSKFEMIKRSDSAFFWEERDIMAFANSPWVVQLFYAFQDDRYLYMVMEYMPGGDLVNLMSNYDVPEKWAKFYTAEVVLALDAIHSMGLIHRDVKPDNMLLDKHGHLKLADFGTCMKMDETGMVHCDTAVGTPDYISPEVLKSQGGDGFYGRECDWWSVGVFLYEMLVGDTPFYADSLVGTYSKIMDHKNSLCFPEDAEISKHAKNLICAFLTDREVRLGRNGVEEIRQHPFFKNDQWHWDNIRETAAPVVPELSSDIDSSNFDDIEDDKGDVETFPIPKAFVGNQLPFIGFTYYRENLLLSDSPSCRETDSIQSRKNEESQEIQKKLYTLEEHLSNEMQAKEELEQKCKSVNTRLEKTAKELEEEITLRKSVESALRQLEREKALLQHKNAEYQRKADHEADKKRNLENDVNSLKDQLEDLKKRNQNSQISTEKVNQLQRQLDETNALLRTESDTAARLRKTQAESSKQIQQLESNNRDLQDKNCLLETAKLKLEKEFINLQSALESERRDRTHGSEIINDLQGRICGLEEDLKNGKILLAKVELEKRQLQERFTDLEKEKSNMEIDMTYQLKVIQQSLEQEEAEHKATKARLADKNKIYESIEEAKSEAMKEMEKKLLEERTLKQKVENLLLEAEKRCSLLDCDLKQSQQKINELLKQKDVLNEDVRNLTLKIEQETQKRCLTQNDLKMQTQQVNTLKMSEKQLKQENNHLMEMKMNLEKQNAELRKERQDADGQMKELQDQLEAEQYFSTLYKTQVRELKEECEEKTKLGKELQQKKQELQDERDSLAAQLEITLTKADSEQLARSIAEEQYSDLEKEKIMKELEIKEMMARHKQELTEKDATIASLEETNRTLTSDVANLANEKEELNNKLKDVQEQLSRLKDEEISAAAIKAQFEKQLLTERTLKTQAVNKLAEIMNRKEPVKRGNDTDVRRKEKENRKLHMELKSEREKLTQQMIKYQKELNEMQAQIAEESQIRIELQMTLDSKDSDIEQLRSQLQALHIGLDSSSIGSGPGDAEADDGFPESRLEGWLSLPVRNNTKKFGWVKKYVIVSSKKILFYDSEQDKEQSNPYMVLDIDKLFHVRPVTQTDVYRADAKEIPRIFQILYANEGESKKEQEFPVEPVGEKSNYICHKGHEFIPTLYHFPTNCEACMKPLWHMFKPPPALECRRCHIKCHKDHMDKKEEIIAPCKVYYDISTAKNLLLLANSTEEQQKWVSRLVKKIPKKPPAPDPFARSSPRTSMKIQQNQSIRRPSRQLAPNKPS
`COc1cccc(NC2C(=O)N(c3ccc(-c4cn[nH]c4)cn3)CC23CCN(C(=O)CCn2cc(C)c4ccccc42)CC3)c1` (centres unmarked) [Example 256, 2-(5-(1H-pyrazol-4-yl)pyridin-2-yl)-4-((3-methoxy-phenyl)amino)-8-(3-(3-methyl-1H-indol-1-yl)propanoyl)-2,8-diazaspiro [4.5]decan-3-one]: the concentration for half-maximal inhibition (IC50) fell in the range of 30 to 250 nM.

On to `COc1cc(CN2C(=O)N(c3ccc(-c4cn[nH]c4)cc3)CC23CCNCC3)ccc1F` [Example 59, 3-(4-(1H-pyrazol-4-yl)phenyl)-1-(4-fluoro-3-methoxybenzyl)-1,3,8-triazaspiro[4.5]decan-2-one], for which the IC50 was under 3 nM. The figure for `COc1cccc(NC2C(=O)N(c3ccc(-c4cn[nH]c4)cc3)CC23CN(CC(F)F)C3)c1` (centres unmarked) [Example 247, 6-(4-(1H-pyrazol-4-yl)phenyl)-2-(2,2-difluoroethyl)-8-((3-methoxy-phenyl)amino)-2,6-diazaspiro [3.4]octan-7-one] is 250 to 3000 nM.

The compound `COc1nc(N2CC3(CCN(C4COC4)CC3)N(Cc3cccc(F)c3C)C2=O)ccc1-c1cn[nH]c1` [Example 239, 1-(3-fluoro-2-methyl-benzyl)-3-(6-methoxy-5-(1H-pyrazol-4-yl)pyridin-2-yl)-8-(oxetan-3-yl)-1,3,8-triazaspiro [4.5]decan-2-one] came in with an IC50 of under 3 nM. The figure for `COc1cccc(CN2C(=O)N(c3ccc(-c4cn[nH]c4)cc3)CC23CCN(C(=O)C2CCCC2)CC3)c1` [Example 174, 3-(4-(1H-pyrazol-4-yl)phenyl)-8-(cyclopentanecarbonyl)-1-(3-methoxybenzyl)-1,3,8-triazaspiro[4.5]decan-2-one] is under 3 nM; for `COc1cccc(CN2C(=O)N(c3ccc(-c4cn[nH]c4)cc3)CC23CCN(C(=O)C2CCOCC2)CC3)c1` [Example 173, 3-(4-(1H-pyrazol-4-yl)phenyl)-1-(3-methoxybenzyl)-8-(tetrahydro-2H-pyran-4-carbonyl)-1,3,8-triazaspiro[4.5]decan-2-one, TFA] it is under 3 nM; for `CCc1nc(N2CC3(CCN(CCC(F)(F)F)CC3)N(Cc3cc(F)cc(OC)c3)C2=O)ccc1-c1cn[nH]c1` [Example 128, 3-(6-ethyl-5-(1H-pyrazol-4-yl)pyridin-2-yl)-1-(3-fluoro-5-methoxybenzyl)-8-(3,3,3-tnfluoropropyl)-1,3,8-triazaspiro[4.5]decan-2-one] it is 3 to 30 nM.

As to `COc1cccc(CN2C(=O)N(c3ccc(-c4cn[nH]c4)c(OC)n3)CC23CCN(C(=O)OC(C)(C)C)CC3)c1` [Example 54, tert-butyl 3-(6-methoxy-5-(1H-pyrazol-4-yl)pyridin-2-yl)-1-(3-methoxybenzyl)-2-oxo-1,3,8-triazaspiro[4.5]decane-8-carboxylate], the IC50 is under 3 nM. In turn, `COc1cccc(CN2C(=O)N(c3ccc(-c4cn[nH]c4)c(OC)n3)CC23CCN(C(=O)C(C)O)CC3)c1` (centres unmarked) [Example 221, 8-(2-hydroxypropanoyl)-3-(6-methoxy-5-(1H-pyrazol-4-yl)pyridin-2-yl)-1-(3-methoxybenzyl)-1,3,8-triazaspiro[4.5]decan-2-one] showed an IC50 of under 3 nM.

Turning to `COc1cccc(CN2C(=O)N(c3ccc(-c4cn[nH]c4)cc3)CC23CCN(C(=O)[C@@H](C)O)CC3)c1` [Example 178, (R)-3-(4-(1H-pyrazol-4-yl)phenyl)-8-(2-hydroxypropanoyl)-1-(3-methoxybenzyl)-1,3,8-triazaspiro[4.5]decan-2-one], the IC50 is under 3 nM. The figure for `COC(=O)N1CCC2(CC1)CN(c1ccc(-c3cn[nH]c3)cc1)C(=O)N2Cc1cccc(OC)c1` [Example 94, Methyl 3-(4-(1H-pyrazol-4-yl)phenyl)-1-(3-methoxybenzyl)-2-oxo-1,3,8-triazaspiro[4.5]decane-8-carboxylate] is under 3 nM; for `COc1cc(F)cc(CN2C(=O)N(c3ccc(-c4cn[nH]c4)cc3)CC23CCN(CC(C)O)CC3)c1` (centres unmarked) [Example 157, 3-(4-(1H-pyrazol-4-yl)phenyl)-1-(3-fluoro-5-methoxybenzyl)-8-(2-hydroxypropyl)-1,3,8-triazaspiro[4.5]decan-2-one] it is under 3 nM. With `CCc1nc(N2CC3(CCN(C(=O)C(C)C)CC3)N(Cc3cccc(OC)c3)C2=O)ccc1-c1cn[nH]c1` [Example 201, 3-(6-ethyl-5-(1H-pyrazol-4-yl)pyridin-2-yl)-8-isobutyryl-1-(3-methoxybenzyl)-1,3,8-triazaspiro[4.5]decan-2-one], the IC50 was under 3 nM.

For the compound `CCc1nc(N2CC3(CCN(CC(F)F)CC3)N(Cc3cccc(F)c3C)C2=O)ccc1-c1cn[nH]c1` [Example 130, 8-(2,2-difluoroethyl)-3-(6-ethyl-5-(1H-pyrazol-4-yl)pyridin-2-yl)-1-(3-fluoro-2-methylbenzyl)-1,3,8-triazaspiro[4.5]decan-2-one], the IC50 is 3 to 30 nM. The figure for `COc1cccc(CN2C(=O)N(c3ncc(-c4cn[nH]c4)c(OC)n3)CC23CCN(C(=O)C(C)(C)CO)CC3)c1` [Example 211, 8-(3-hydroxy-2,2-dimethylpropanoyl)-3-(4-methoxy-5-(1H-pyrazol-4-yl)pyrimidin-2-yl)-1-(3-methoxybenzyl)-1,3,8-triazaspiro[4.5] decan-2-one] is 30 to 250 nM; for `COc1ccc(CCC(=O)N2CCC3(CC2)CN(c2ccc(-c4cn[nH]c4)cn2)C(=O)C3Nc2cccc(OC)c2)cc1` (centres unmarked) [Example 255, -(5-(1H-pyrazol-4-yl)pyridin-2-yl)-4-((3-methoxy-phenyl)amino)-8-(3-(4-methoxy-phenyl)propanoyl)-2,8-diazaspiro [4.5]decan-3-one] it is 250 to 3000 nM. The figure for `Cc1c(F)cccc1CN1C(=O)N(c2ccc(-c3cn[nH]c3)cc2)CC12CCN(C(=O)OC(C)(C)C)CC2` [Example 49, tert-butyl 3-(4-(1H-pyrazol-4-yl)phenyl)-1-(3-fluoro-2-methylbenzyl)-2-oxo-1,3,8-triazaspiro[4.5]decane-8-carboxylate] is 3 to 30 nM; for `O=C(NCCO)c1cccc(CN2C(=O)N(c3ccc(-c4cn[nH]c4)cc3)CC23CCOCC3)c1` [Example 36, 3-((3-(4-(1H-pyrazol-4-yl)phenyl)-2-oxo-8-oxa-1,3-diazaspiro[4.5]decan-1-yl)methyl)-N-(2-hydroxyethyl)benzamide] it is under 3 nM. The figure for `COc1cccc(CN2C(=O)N(c3ccc(-c4cn[nH]c4)cc3)CC23CCN(CC(=O)N(C)C)CC3)c1` [Example 170, 2-(3-(4-(1H-pyrazol-4-yl)phenyl)-1-(3-methoxybenzyl)-2-oxo-1,3,8-triazaspiro[4.5]decan-8-yl)-N,N-dimethylacetamide] is under 3 nM; for `COc1cccc(CN2C(=O)N(c3ccc(-c4cn[nH]c4)cc3)CC23CCN(S(C)(=O)=O)CC3)c1` [Example 234, 3-(4-(1H-pyrazol-4-yl)phenyl)-1-(3-methoxybenzyl)-8-(methylsulfonyl)-1,3,8-triazaspiro[4.5]decan-2-one] it is under 3 nM; for `O=C(c1cccc(CN2C(=O)N(c3ccc(-c4cn[nH]c4)cc3)CC23CCOCC3)c1)N1CCC(CO)CC1` [Example 47, 3-(4-(1H-pyrazol-4-yl)phenyl)-1-(3-(4-(hydroxymethyl)piperidine-1-carbonyl)benzyl)-8-oxa-1,3-diazaspiro[4.5]decan-2-one] it is 3 to 30 nM. On to `CCc1nc(N2CC3(CCN(C(=O)[C@H]4CC4(F)F)CC3)N(Cc3cccc(OC)c3)C2=O)ccc1-c1cn[nH]c1` [Example 217, (R)-8-(2,2-difluorocyclopropane-carbonyl)-3-(6-ethyl-5-(1H-pyrazol-4-yl)pyridin-2-yl)-1-(3-methoxybenzyl)-1,3,8-triazaspiro[4.5]decan-2-one], for which the IC50 is under 3 nM. The figure for `Cc1ccc(F)cc1CN1C(=O)N(c2ccc(-c3cn[nH]c3)cc2)CC12CCOCC2` [Example 27, 3-(4-(1H-pyrazol-4-yl)phenyl)-1-(5-fluoro-2-methylbenzyl)-8-oxa-1,3-diazaspiro[4.5]decan-2-one] is 30 to 250 nM; for `COc1cccc(CN2C(=O)N(c3ccc(-c4cn[nH]c4)c(C)n3)CC23CCN(C(=O)OC(C)(C)C)CC3)c1` [Example 52, tert-butyl 1-(3-methoxybenzyl)-3-(6-methyl-5-(1H-pyrazol-4-yl)pyridin-2-yl)-2-oxo-1,3,8-triazaspiro[4.5]decane-8-carboxylate] it is 30 to 250 nM. The figure for `COc1cccc(CN2C(=O)N(c3ccc(-c4cn[nH]c4)cc3)CC23CCN(C(=O)[C@H](C)O)CC3)c1` [Example 177, (S)-3-(4-(1H-pyrazol-4-yl)phenyl)-8-(2-hydroxypropanoyl)-1-(3-methoxybenzyl)-1,3,8-triazaspiro[4.5]decan-2-one] is under 3 nM; for `COc1cccc(CN2C(=O)N(c3ccc(-c4cn[nH]c4)cc3)CC23CCN(C2COC2)CC3)c1` [Example 235, 3-(4-(1H-pyrazol-4-yl)phenyl)-1-(3-methoxybenzyl)-8-(oxetan-3-yl)-1,3,8-triazaspiro[4.5]decan-2-one] it is under 3 nM; for `COc1cccc(CN2C(=O)N(c3ccc(-c4cn[nH]c4)cc3)CC23CCN(C)CC3)c1` [Example 113, 3-(4-(1H-pyrazol-4-yl)phenyl)-1-(3-methoxybenzyl)-8-methyl-1,3,8-triazaspiro[4.5]decan-2-one] it is under 3 nM. The figure for `CCc1nc(N2CC3(CCN(CC(C)O)CC3)N(Cc3cccc(OC)c3)C2=O)ccc1-c1cn[nH]c1` (centres unmarked) [Example 151, 3-(6-ethyl-5-(1H-pyrazol-4-yl)pyridin-2-yl)-8-(2-hydroxypropyl)-1-(3-methoxybenzyl)-1,3,8-triazaspiro[4.5]decan-2-one] is under 3 nM; for `COc1cccc(CN2C(=O)N(c3ccc(-c4cn[nH]c4)c(OC)n3)CC23CCN(CC(C)O)CC3)c1` (centres unmarked) [Example 147, 8-(2-hydroxypropyl)-3-(6-methoxy-5-(1H-pyrazol-4-yl)pyridin-2-yl)-1-(3-methoxybenzyl)-1,3,8-triazaspiro[4.5]decan-2-one] it is under 3 nM.
